Reference: US20210045381A1, “FORMULATIONS” (priority 2018, published 2021)

Test: Release of pesticide from 3-D printed binary solid objects in a stirred dissolution basket
Format: physicochemical
Conditions: for Percentage Release, Water - after 720 min.: from binary solid object T7 (T3 + T4, no surfactant); for Percentage Release, Water - after 720 min. / Percentage Release, Water - after 30 min.: into water; for Percentage Release, S1 - after 30 min. / Percentage Release, S2 - after 30 min.: from binary solid object T7; for Percentage Release, S1 - after 30 min.: into S1 = water with 0.5% w/w Agnique FOH 90C-20; for Percentage Release, S2 - after 30 min.: into S2 = water with 0.5% w/w Agnique FOH 90C-20 and 1% Tween 80
Description: This Example illustrates a binary (two-sectioned) extruded solid object displaying both slow and fast release. The release of pesticide from the 3-D printed binary solid object T7 of Example 2 (containing T3 and T4) was measured. In each experiment three T7 solid objects were added to a dissolution basket which was stirred at 30 rpm. Release was measured into water; into water containing a commercially available surfactant (S1); and into water with two different types of commercially available surfactant (S2). […] Binary solid object T7 released 64% of the pesticide in 720 minutes. The release of the fungicide azoxystrobin in the same time period was only 27%; this was slow release. Release rates into the two surfactant containing media were faster for both pesticides. S1 contained water with 0.5% w/w of Agnique®FOH 90C-20 whereas S2 contained water with 0.5% w/w Agnique®FOH 90C-20 and 1% Tween® 80. Tween® 80 is a non-ionic surfactant: polyoxyethylene (20) sorbitan monooleate.
This Example illustrates the effect of a surfactant of the release profile of a binary (two-sectioned) extruded solid object. Similarly to Example 3, the releases of pesticides from the 3-D printed binary solid object T8 of Example 2 (containing T5 and T6) were measured; three solid objects T8 were added to a dissolution basket which was stirred at 30 rpm. […] Furthermore, compared to solid object T7 releasing fomesafen into water which already contains a high concentration of the same surfactant (S1 of Example 2), the release from T8 (the formulation with built-in surfactant) was considerably faster (78% versus 39.3% [S1]). […] Similar to the case for fomesafen we also see that the T8 azoxystrobin section (with built-in surfactant) released considerably more of the azoxystrobin than the T7 (surfactant free) solid object releasing into a surfactant solution (37% versus 28.9%).

[1] = from binary solid object T7 (sections T3 + T4, no surfactant), three objects, basket stirred at 30 rpm, 30 min
[2] = from binary solid object T7 into water, 720 min
[3] = from binary solid object T8 (fomesafen section T5, azoxystrobin section T6, both with built-in alkyl ethoxylate surfactant), 30 rpm, 30 min

| SMILES | Percentage Release, Water - after 720 min. (30 rpm, 720 min) [%] | Percentage Release, Water - after 30 min. [1] [%] | Percentage Release, S1 - after 30 min. (30 rpm, 30 min) [%] | Percentage Release, S2 - after 30 min. (30 rpm, 30 min) [%] | Release profile (in words) [2] | Percentage Release, Water - after 30 min. [3] [%] | Increase of release rate from T8 compared to T7 (factor, water, 30 min, T8 (with surfactant) versus T7 (no surfactant)) | Release profile (in words) (from binary solid object T8 into water, 30 min) |
| --- | --- | --- | --- | --- | --- | --- | --- | --- |
| CO/C=C(/C(=O)OC)c1ccccc1Oc1cc(Oc2ccccc2C#N)ncn1 [Azoxystrobin] | 27 | 15.6 | 28.9 | 48.3 | slow release | 37 | – | – |
| CS(=O)(=O)NC(=O)c1cc(Oc2ccc(C(F)(F)F)cc2Cl)ccc1[N+](=O)[O-] [Fomesafen] | 64 | 23.6 | 39.3 | 45.9 | fast release | 78 | three | fast release |
